“Also recorded” adds a separate entry of the source.
Key:
[1] = tested on: CD34^+ HSCs; assay: Hematopoietic colony forming cell (CFC) assay in Methocult medium; format: cell-based, human; conditions: Nucleofection with wild-type Cas9 and CCR5-U43 gRNA plasmid DNA + UM171; two weeks
Description: (§1) Human CD34^+ HSCs cells from mobilized peripheral blood (AllCells) were thawed into StemSpan Serum-Free Expansion Medium (SFEM™, StemCell Technologies) containing 100 ng/mL each of the following cytokines: human stem cell factor (SCF), thrombopoietin (TPO), and flt-3 ligand (FL) (all from Peprotech). Cells were grown for 3 days in a humidified incubator and 5% CO2 20% O2. […] The published use of UM171 involved prolonged exposure of HSCs to the small molecule for ex vivo expansion of HSCs. In the current experiment, HSCs were exposed to UM171 for 2 hours before and 24 hours after delivery of Cas9 and gRNA plasmid DNA. This UM171 treatment protocol was based on pilot studies performed by the inventors that indicated acute pre-treatment with UM171 before lentivirus vector mediated gene delivery improved HSC viability compared to HSCs treated with vehicle (dimethylsulfoxide, DMSO, Sigma) alone. After the 2-hour pretreatment with UM171, 1 million CD34^− HSCs were Nucleofected™ with the Amaxa™ 4D Nucleofector™ device (Lonza), Program EO100 using components of the P3 Primary Cell 4D-Nucleofector Kit™ (Lonza) according to the manufacturer's instructions. Briefly, one million cells were suspended in Nucleofector™ solution and the following amounts of plasmid DNA were added to the cell suspension: 1250 ng plasmid expressing CCR5 gRNA (CCR5-U43) from the human U6 promoter and 3750 ng plasmid expressing wild-type S. pyogenes Cas 9 transcriptionally regulated by the CMV promoter. After Nucleofection™, cells were plated into Stemspan-SFEM™ supplemented with SCF, TPO, FL and 40 nM UM171. After overnight incubation, HSCs were plated in Stemspan-SFEM™ plus cytokines without UM171. At 96 hours after Nucleofection™, CD34^+ cells were counted for by trypan blue exclusion and divided into 3 portions for the following analyses: a) flow cytometry analysis for assessment of viability by co-staining with 7-Aminoactinomycin-D (7-AAD) and allophycocyanin (APC)-conjugated Annexin-V antibody (ebioscience); b) flow cytometry analysis for maintenance of HSC phenotype (after co-staining with phycoerythrin (PE)-conjugated anti-human CD34 antibody and fluorescein isothicyanate (FITC)-conjugated anti-human CD90, both from BD Bioscience; c) hematopoietic colony forming cell (CFC) analysis by plating 1500 cells in semi-solid methylcellulose based Methocult medium (StemCell Technologies) that supports differentiation of erythroid and myeloid blood cell colonies from HSCs and serves as a surrogate assay to evaluate HSC multipotency and differentiation potential ex vivo; d) genomic DNA analysis for detection of editing at the CCR5 locus. Genomic DNA was extracted from HSCs 96 hours after Nucleofection™, and CCR5 locus-specific PCR reactions were performed.
To evaluate maintenance of HSC potency and differentiation potential, two weeks after plating CD34^+ HSCs in CFC assays, hematopoietic activity was quantified based on scoring the HSC progeny by enumerating the total number of hematopoietic colony forming units (CFU) and the frequencies of specific blood cell phenotypes, including: mixed myeloid/erythroid (Granulocyte-erythroid-monocyte macrophage, CFU-GEMM), myeloid (CFU-macrophage (M), granulocyte-macrophage (CFU-GM)) and erythroid (CFU-E) colonies. CD34^+ HSCs that were Nucleofected™ after UM171 pre-treatment maintained CFC potential compared to un-Nucleofected™ HSCs (Table 12). In contrast, CD34^+ HSCs that were Nucleofected™ without UM171 pre-treatment had reduced CFC potential (lower total CFC counts and reduced numbers of mixed-phenotype colonies (CFU-GEMM) and erythroid colonies (CFU-E)) in comparison to un-Nucleofected™ CD34^+ HSCs.
Human CD34^+ HSCs cells from mobilized peripheral blood (AllCells) were thawed into StemSpan Serum-Free Expansion Medium (SFEM, StemCell Technologies) containing 100 ng/mL each of the following cytokines: human stem cell factor (SCF), thrombopoietin (TPO), and flt-3 ligand (FL) (all from Peprotech). […]

[2] = tested on: human mobilized peripheral blood CD34^+ HSCs; assay: Viability by 7-AAD / Annexin-V flow cytometry 96 hours after Nucleofection; format: cell-based
Description: as §1, with “After the 2-hour pretreatment with UM171, 1 million CD34^− HSCs were Nucleofected™ with the Amaxa™ 4D Nucleofector™ device (Lonza), Program EO100 using components of the P3 Primary Cell 4D-Nucleofector Kit™ (Lonza) according to the manufacturer's instructions. Briefly, one million cells were suspended in Nucleofector™ solution and the following amounts of plasmid DNA were added to the cell suspension: 1250 ng plasmid expressing CCR5 gRNA (CCR5-U43) from the human U6 promoter and 3750 ng plasmid expressing wild-type S. pyogenes Cas 9 transcriptionally regulated by the CMV promoter. After Nucleofection™, cells were plated into Stemspan-SFEM™ supplemented with SCF, TPO, FL and 40 nM UM171. After overnight incubation, HSCs were plated in Stemspan-SFEM™ plus cytokines without UM171.” left out, “Genomic DNA was extracted from HSCs 96 hours after Nucleofection™, and CCR5 locus-specific PCR reactions were performed.” left out

## Cn1nnc(-c2ccc3c(c2)[nH]c2nc(Cc4ccccc4)nc(N[C@H]4CC[C@H](N)CC4)c23)n1 [UM171, (1r,4r)-N1-(2-benzyl-7-(2-methyl-2H-tetrazol-5-yl)-9H-pyrimido[4,5-b]indol-4-yl)cyclohexane-1,4-diamine]
[1]
  Number of colony forming units: E: 92 colony forming units per 1500 CD34^+ HSCs plated
  Number of colony forming units: G: 40 colony forming units per 1500 CD34^+ HSCs plated
  Number of colony forming units: GEMM: 20 colony forming units per 1500 CD34^+ HSCs plated
  Number of colony forming units: GM: 32 colony forming units per 1500 CD34^+ HSCs plated
  Number of colony forming units: M: 64 colony forming units per 1500 CD34^+ HSCs plated
  Number of colony forming units: Total: 228 colony forming units per 1500 CD34^+ HSCs plated
[2]; 40 nM UM171, 2 hours before and 24 hours after Nucleofection with Cas9 and CCR5-U43 gRNA plasmid DNA
  Effect of UM171 on CD34+ HSC viability, survival and proliferation after Nucleofection: preserved CD34^+ HSC viability; also recorded: critical for maintenance of HSC survival and proliferation
[2]; pre-treatment and short-term (24-hour) co-culture, Cas9 and CXCR4 gRNA plasmid DNA
  Effect of UM171 on HSC survival and proliferation after Nucleofection: critical for maintenance of HSC survival and proliferation
